Literature values, collected in US10441534B2, “Method for treating gynecological diseases” (PregLem SA, priority 2012, dated 2019).

Tests used:
uterine fibroids = conditions: three months treatment period
[1] = once daily UPA 5 mg tablets, plasma

## CC(=O)O[C@]1(C(C)=O)CC[C@H]2[C@@H]3CCC4=CC(=O)CCC4=C3[C@@H](c3ccc(N(C)C)cc3)C[C@@]21C [ulipristal acetate, 17α-acetoxy-11β-(4-(N,N-dimethylamino)-phenyl)-19-norpregna-4,9-diene-3,20-dione]
Uterine fibroids
  efficacy in patient with uterine fibroids: efficient on the control of bleeding, reduction of fibroids volume and improvement of the patient quality of life
[1]
  UPA Cmax: about 25 ng/mL
  UPA steady state concentrations: about 3 ng/mL
